Source: patent US12227520B2 (priority 2019, dated 2025)
Like-named read-outs stand apart in the source and are kept apart here.

What was measured:
HIV-1 (IIIB) = test: Antiviral assay in MT-4 cells (HIV MT-4 antiviral assay); assay type: cell-based; conditions: HIV-1 (IIIB) in MT-4 cells, 5 days incubation
Experimental: Compounds were tested in a high-throughput 384-well assay format for their ability to inhibit the replication of HIV-1 (IIIB) in MT-4 cells. Compounds were serially diluted (1:3) in DMSO on 384-well polypropylene plates and further diluted 200-fold into complete RPMI media (10% FBS, 1% P/S) using the Biotek Micro Flow and Labcyte ECHO acoustic dispenser. Each plate contained up to 8 test compounds, with negative (No Drug Control) and 5 μM AZT positive controls. MT-4 cells were pre-infected with 10 μL of either RPMI (mock-infected) or a fresh 1:250 dilution of HIV-1 IIIB concentrated virus stock. Infected and uninfected MT-4 cells were further diluted in complete RPMI media and added to each plate using a Micro Flow dispenser. After 5 days incubation in a humidified and temperature controlled incubator (37° C.), Cell Titer Glo (Promega) was added to the assay plates and chemiluminescence read using an Envision plate-reader.

[1] = Cytotoxicity assay in MT-4 cells; assay type: cell-based, human; conditions: human, uninfected MT-4 cells, 5 days incubation; read-out: CC50
Experimental: Each plate contained up to 8 test compounds, with negative (No Drug Control) and 5 μM AZT positive controls. MT-4 cells were pre-infected with 10 μL of either RPMI (mock-infected) or a fresh 1:250 dilution of HIV-1 IIIB concentrated virus stock. Infected and uninfected MT-4 cells were further diluted in complete RPMI media and added to each plate using a Micro Flow dispenser. After 5 days incubation in a humidified and temperature controlled incubator (37° C.), Cell Titer Glo (Promega) was added to the assay plates and chemiluminescence read using an Envision plate-reader. […] Assays were performed as above except uninfected MT-4 cells were added to each well containing test compound. In addition, 10 μM puromycin was added to the last column of each assay plate to assess a base level of cytotoxicity.

pLai RLuc reporter virus = test: microbe, parasite or virus in culture; assay type: cell-based, HIV; conditions: Human immunodeficiency virus 1, 72 h
Experimental: To quantify the amount of protein binding to human serum, compounds were serially diluted (1:3) in DMSO and acoustically transferred onto 384-well assay plates via a Labcyte ECHO robot. Each plate contained up to 8 test compounds, including negative and positive controls, (DMSO, 5 μM AZT respectively). Assay plates were prepared in duplicate, and tested in either CCM (cell culture media) or HS/CCM (human serum/cell culture media). MT-4 cells were first pre-infected with pLai RLuc reporter virus for 2 h at 37° C., then further diluted in either CCM (RPMI media, 10% FBS, 1% P/S) or HS/CCM (RPMI media, 10% FBS, 50% HS, 1% P/S), and subsequently added to each plate using a Biotek Micro Flow dispenser. After a 72-h incubation in a humidified and temperature controlled incubator (37° C.), Renilla Glo (Promega) was added to all assay plates and chemiluminescence read using an Envision plate-reader. […] To determine the amount of protein binding, EC50 fold shifts (or EC50 shifts) were calculated by dividing EC50 (HS/CCM)/EC50 (CCM).

[2] = Human immunodeficiency virus 1, IIIB, MT4, 120 h, read-out: EC50

Row | SMILES | EC50 (HIV-1 (IIIB); [2]) [nM] | CC50 at 5 days [1] [µM] | other results
1 | O=C(NCc1ccc(F)cc1F)c1cn2c(c(O)c1=O)C(=O)N1Cc3ccc(Cl)cc3C[C@@H]2C1 (single isomer, unassigned) [Example 128-2] | 7.37 | > 50 | 
2 | O=C(NCc1ccc(Cl)cc1Cl)c1cn2c(c(O)c1=O)C(=O)N1CCCC[C@H]2C1 [Example 153, (7S)—N-(2,4-dichlorobenzyl)-12-hydroxy-1,11-dioxo-1,4,5,6,7,11-hexahydro-3H-2,7-methanopyrido[1,2-a][1,4]diazonine-10-carboxamide] | 29.8 | 5.61 | 
3 | CC12CCCCN(C1)C(=O)c1c(O)c(=O)c(C(=O)NCc3c(F)cc(F)cc3F)cn12 (centres unmarked) [Example 18, 12-hydroxy-7-methyl-1,11-dioxo-N-(2,4,6-trifluorobenzyl)-1,4,5,6,7,11-hexahydro-3H-2,7-methanopyrido[1,2-a][1,4]diazonine-10-carboxamide] | 1.4 | 29.4 | 
4 | O=C(NCc1cccc(Cl)c1F)c1cn2c(c(O)c1=O)C(=O)N1CCCC[C@H]2C1 [Example 126, (7S)—N-(3-chloro-2-fluorobenzyl)-12-hydroxy-1,11-dioxo-1,4,5,6,7,11-hexahydro-3H-2,7-methanopyrido[1,2-a][1,4]diazonine-10-carboxamide] |  | 15.4 | EC50 (HIV-1 (IIIB); Human immunodeficiency virus 1, IIIB, MT4, 120 h): 4.75 nM
5 | O=C(NCc1ccc(F)c(Cl)c1F)c1cn2c(c(O)c1=O)C(=O)N1Cc3cc(F)c(F)cc3C[C@H]2C1 [Example 139-2, (6S)—N-(3-chloro-2,4-difluorobenzyl)-9,10-difluoro-1-hydroxy-2,14-dioxo-2,7,12,14-tetrahydro-6H-6,13-methanobenzo[f]pyrido[1,2-a][1,4]diazonine-3-carboxamide] | 9.11 | > 50 | 
6 | O=C(NCc1c(F)cc(F)cc1F)c1cn2c(c(O)c1=O)C(=O)N1CC=C(F)C[C@H]2C1 [Example 133, (7S)-5-fluoro-12-hydroxy-1,11-dioxo-N-(2,4,6-trifluorobenzyl)-1,6,7,11-tetrahydro-3H-2,7-methanopyrido[1,2-a][1,4]diazonine-10-carboxamide] |  |  | EC50 (pLai RLuc reporter virus; read-out: Antiviral Serum Shift RLuc 50% HS, HS/CCM (RPMI media, 10% FBS, 50% HS, 1% P/S), 72-h incubation): 1.66 nM; EC50 (pLai RLuc reporter virus; read-out: Antiviral Serum Shift RLuc CCM, CCM (RPMI media, 10% FBS, 1% P/S), 72-h incubation): 0.533 nM
7 | O=C(NCc1ccc(F)cc1F)c1cn2c(c(O)c1=O)C(=O)N1CCCC(O)(C(F)F)[C@H]2C1 (stereo partly drawn) [Example 76, (7R)—N-(2,4-difluorobenzyl)-6-(difluoromethyl)-6,12-dihydroxy-1,11-dioxo-1,4,5,6,7,11-hexahydro-3H-2,7-methanopyrido[1,2-a][1,4]diazonine-10-carboxamide] | 7.99 | 23.7 | 
8 | O=C(NCc1ccc(F)cc1F)c1cn2c(c(O)c1=O)C(=O)N1C[C@H]2CCc2ccccc21 (single isomer, unassigned) [Example 37-1] | 21.4 | 10.5 | 
9 | O=C(NCc1ccc(F)cc1F)c1cn2c(c(O)c1=O)C(=O)N1CC2CCc2cc(F)ccc21 (single isomer, unassigned) [Example 55-1] |  | 13 | EC50 (HIV-1 (IIIB)): > 89.4 nM
10 | O=C(NCc1ccc(F)cc1F)c1cn2c(c(O)c1=O)C(=O)N1C(=O)C2CCc2ccccc21 (centres unmarked) [Example 27, N-(2,4-difluorobenzyl)-7-hydroxy-6,8,15-trioxo-6,8,13,14-tetrahydro-12H-5,12-methanobenzo[e]pyrido[1,2-a][1,4]diazonine-9-carboxamide] | > 100 | 10.9 | 
11 | CCC1(F)CCCN2CC1n1cc(C(=O)NCc3ccc(F)cc3F)c(=O)c(O)c1C2=O (centres unmarked) [Example 105, N-(2,4-difluorobenzyl)-6-ethyl-6-fluoro-12-hydroxy-1,11-dioxo-1,4,5,6,7,11-hexahydro-3H-2,7-methanopyrido[1,2-a][1,4]diazonine-10-carboxamide] | 1.9 | 22.3 | 
12 | O=C(NCc1ccc(F)cc1F)c1cn2c(c(O)c1=O)C(=O)N1CCOC[C@H]2C1 [Example 29, (7R)—N-(2,4-difluorobenzyl)-12-hydroxy-1,11-dioxo-1,3,4,6,7,11-hexahydro-2,7-methanopyrido[1,2-d][1,4,7]oxadiazonine-10-carboxamide] | 7 | > 50 | 
13 | CN1CCN2CC(C1)n1cc(C(=O)NCc3ccc(F)cc3F)c(=O)c(O)c1C2=O (centres unmarked) [Example 33, N-(2,4-difluorobenzyl)-12-hydroxy-5-methyl-1,11-dioxo-1,4,5,6,7,11-hexahydro-3H-2,7-methanopyrido[1,2-a][1,4,7]triazonine-10-carboxamide] | 7 | > 50 | 

More lines, main results first:

Row | EC50 (HIV-1 (IIIB); [2]) [nM] | SMILES | CC50 at 5 days [1] [µM] | other results
14 | 12.1 | C[C@@]1(O)CCN2C[C@H](C1)n1cc(C(=O)NCc3c(F)cc(F)cc3F)c(=O)c(O)c1C2=O [Example 107-2, (5R,7S)-5,12-dihydroxy-5-methyl-1,11-dioxo-N-(2,4,6-trifluorobenzyl)-1,4,5,6,7,11-hexahydro-3H-2,7-methanopyrido[1,2-a][1,4]diazonine-10-carboxamide] | > 50 | 
15 | 8.83 | C[C@@]1(F)CC[C@H]2CN(C1)C(=O)c1c(O)c(=O)c(C(=O)NCc3c(F)cc(F)cc3F)cn12 [Example 132-1, (4R,7S)-4-fluoro-12-hydroxy-4-methyl-1,11-dioxo-N-(2,4,6-trifluorobenzyl)-1,4,5,6,7,11-hexahydro-3H-2,7-methanopyrido[1,2-a][1,4]diazonine-10-carboxamide] | > 50 | 
16 | 4.43 | O=C(NCc1c(F)cc(F)cc1F)c1cn2c(c(O)c1=O)C(=O)N1CCSC[C@H]2C1 [Example 155-2, (7R)-12-hydroxy-1,11-dioxo-N-(2,4,6-trifluorobenzyl)-1,3,4,6,7,11-hexahydro-2,7-methanopyrido[1,2-d][1,4,7]thiadiazonine-10-carboxamide] | > 41.3 | 
17 | 8.14 | O=C(NCc1c(F)cc(F)cc1F)c1cn2c(c(O)c1=O)C(=O)N1CCc3ccccc3[C@@H]2C1 (single isomer, unassigned) [Example 63-2] | 14.3 | 
18 | 10.3 | O=C(NCc1c(F)cc(F)cc1F)c1cn2c(c(O)c1=O)C(=O)N1CCCC2CC1 (single isomer, unassigned) [Example 24-1, 11-hydroxy-1,10-dioxo-N-(2,4,6-trifluorobenzyl)-1,3,4,5,6,10-hexahydro-2,6-ethanopyrido[1,2-a][1,4]diazocine-9-carboxamide] | 13.6 | 
19 | 3.02 | COC1CCCN2C[C@H]1n1cc(C(=O)NCc3c(F)cc(F)cc3F)c(=O)c(O)c1C2=O (stereo partly drawn) [Example 99-2, (7R)-12-hydroxy-6-methoxy-1,11-dioxo-N-(2,4,6-trifluorobenzyl)-1,4,5,6,7,11-hexahydro-3H-2,7-methanopyrido[1,2-a][1,4]diazonine-10-carboxamide] | > 23.4 | 
20 | 9.2 | CO[C@H]1CCN2C[C@H](C1)n1cc(C(=O)NCc3c(F)cc(F)cc3F)c(=O)c(O)c1C2=O [Example 103-2, (5S,7S)-12-hydroxy-5-methoxy-1,11-dioxo-N-(2,4,6-trifluorobenzyl)-1,4,5,6,7,11-hexahydro-3H-2,7-methanopyrido[1,2-a][1,4]diazonine-10-carboxamide] | > 50 | 
21 | 27.3 | O=C(NCc1c(F)cc(F)cc1F)c1cn2c(c(O)c1=O)C(=O)N1CCCC2CC1 (racemic) [Example 24, 11-hydroxy-1,10-dioxo-N-(2,4,6-trifluorobenzyl)-1,3,4,5,6,10-hexahydro-2,6-ethanopyrido[1,2-a][1,4]diazocine-9-carboxamide] | 13.8 | 
22 | 2.78 | C[C@]1(F)CC[C@H]2CN(C1)C(=O)c1c(O)c(=O)c(C(=O)NCc3c(F)cc(F)cc3F)cn12 [Example 132-2, (4S,7S)-4-fluoro-12-hydroxy-4-methyl-1,11-dioxo-N-(2,4,6-trifluorobenzyl)-1,4,5,6,7,11-hexahydro-3H-2,7-methanopyrido[1,2-a][1,4]diazonine-10-carboxamide] | 25.7 | 
